These results are taken from patent US4640922A, “3N-substituted 3,4-dihydropyrimidines as agents for treating disorders of cardiovascular system” (Suntory Limited, priority 1984, dated 1987).

Like-named read-outs stand apart in the source and are kept apart here.

The subject of one test is vertebral artery. As to the kind of experiment: Blood flow and blood vessel resistance of vertebral artery in anesthetized dogs. In kind it is in vivo, dog. Particulars: Canis lupus familiaris, iv, % of value before administration, average ± standard error. The procedure: (§1) The pharmacological effects of the compounds of the present invention with respect to the blood flow and blood vessel resistance of vertebral artery and systemic blood pressure (average pressure) in anesthetized dogs. […] The first and second ribs were cut open to expose the left vertebral artery. A probe was attached to the origin of the artery and the blood flow was measured with an electromagnetic rheometer (Model MF-27, product of Nihon Koden K.K.) At the same time, continuous measurement of the following parameters was made: systemic blood pressure (average pressure) at the right femoral artery, the ECG in the second induction period, the heart beat with a tachometer driven by the R wave, and the blood vessel resistance determined by loading a multiplication/division unit (EO-601 G, product of Nihon Koden K.K.) with the average values of blood pressure and blood flow in the vertebral artery. All of these parameters were recorded simultaneously on a polygraph (RM-600, product of Nihon Koden, K.K.) All of the test compounds were injected through a cannula inserted into the femoral […].

The test system of the next test is systemic blood pressure. The test can be described thus: Systemic blood pressure (average pressure) in anesthetized dogs. The note with it: Canis lupus familiaris, iv, % of value before administration, average ± standard error, read-out: Average blood pressure, percentage compared with control. Type of test: in vivo, dog. The procedure:
as §1

Test [1] concerns coronary artery (isolated heart). As to the kind of experiment: Coronary vascular dilative effect, isolated perfused guinea pig heart, Langendorff's method (perfusion pressure). The note with it: for Pharmacological data ED50: 0.1 ml injected into coronary artery, isolated guinea pig heart, 37° C., 6 ml/minute. On the procedure:
The coronary vascular dilative effect of 3N-substituted 3,4-dihydropryrimidine derivatives was tested.
Heartly guinea pigs (weight 400-500 g) were clubbed dead and their hearts were immediately isolated. The hearts were perfused with Krebs-Henseleit solution bubbled with a mixture of 95% O2 +5% CO2 and maintained at 37° C. at a certain rate of 6 ml/minute according to Langendorff's method [J. Pharmacol. Methods 2, 143 (1979)]. The perfusion pressure was determined by a pressure transducer. Samples were prepared by dissolving 1 mg of a test compound in 1 ml of a mixture of dimethylsulfoxide and physiological saline (1:9) and diluting with physiological saline the solution to the predetermined concentration. 0.1 ml of the diluted solution was administered into the coronary artery via a rubber tube connected to an aorta cannula to obtain ED50 (μg/heart) data as shown in Table 1. The numbers of the compounds in the Table correspond respectively to those of the working examples described above.

The mark [2] stands for this setting: read-out: Vertebral artery blood flow, percentage compared with control.
[3] abbreviates: read-out: Vertebral artery vessel resistance, percentage compared with control.

Regarding `CCOC(=O)C1=C(Cl)N=C(C)N(C(=O)OCC)C1c1cccc([N+](=O)[O-])c1` (stereo not shown) [Compound 13], in the test with vertebral artery (setting [2]), the response vs control in vivo at 0.003 mg/kg is 108%, the response vs control in vivo at 0.01 mg/kg worked out at 126%, the response vs control in vivo at 0.03 mg/kg worked out at 128% and the response vs control in vivo at 0.1 mg/kg was found to be 158%. In the test on vertebral artery (setting [2]), the response vs control in vivo at 0.3 mg/kg turned out to be 179% and the response vs control in vivo at 1 mg/kg is 216%. Also, in the test on vertebral artery (setting [3]), the response vs control in vivo at 0.003 mg/kg was found to be 89%, the response vs control in vivo at 0.01 mg/kg worked out at 81%, the response vs control in vivo at 0.03 mg/kg turned out to be 73% and the response vs control in vivo at 0.1 mg/kg was determined as 54%. Besides, in the test on vertebral artery (setting [3]), the response vs control in vivo at 0.3 mg/kg was 46% and the response vs control in vivo at 1 mg/kg stood at 41%. In addition, in the test on systemic blood pressure, the response vs control in vivo at 0.003 mg/kg worked out at 94%, the response vs control in vivo at 0.01 mg/kg turned out to be 92%, the response vs control in vivo at 0.03 mg/kg amounted to 88% and the response vs control in vivo at 0.1 mg/kg was determined as 78%. Besides, in the test with systemic blood pressure (0.3 mg/kg), the response vs control in vivo at 0.3 mg/kg was 78%. The response vs control in vivo at 1 mg/kg in the test with systemic blood pressure (1.0 mg/kg) was determined as 77%. Moreover, the “Pharmacological data ED50” value in test [1] worked out at 0.48 μg/heart.
Regarding `CCOC(=O)C1=C(C)N=C(C)N(C(=O)OCC)C1c1ccccc1Cl` (stereo not shown) [Compound 22], in the test with vertebral artery (setting [2]), the response vs control in vivo at 0.001 mg/kg came out at 105%, the response vs control in vivo at 0.003 mg/kg came out at 119%, the response vs control in vivo at 0.01 mg/kg turned out to be 136% and the response vs control in vivo at 0.03 mg/kg came out at 188%. The response vs control in vivo at 0.1 mg/kg with vertebral artery (setting [2]) was 229%. Further, in the test with vertebral artery (setting [3]), the response vs control in vivo at 0.001 mg/kg is 96%, the response vs control in vivo at 0.003 mg/kg amounted to 80%, the response vs control in vivo at 0.01 mg/kg amounted to 65% and the response vs control in vivo at 0.03 mg/kg stood at 49%. In the test with vertebral artery (setting [3]), the response vs control in vivo at 0.1 mg/kg worked out at 39%. In the test on systemic blood pressure, the response vs control in vivo at 0.001 mg/kg turned out to be 94%, the response vs control in vivo at 0.003 mg/kg was 89%, the response vs control in vivo at 0.01 mg/kg was 82% and the response vs control in vivo at 0.03 mg/kg came out at 85%. In addition, in the test on systemic blood pressure, the response vs control in vivo at 0.1 mg/kg is 79%. For the same compound, in test [1], the “Pharmacological data ED50” value was 0.086 μg/heart. Besides, in test [1] (Langendorff's method, guinea pig heart), the “coronary vascular dilative effects (in words)” value was “extremely strong coronary vascular dilative effects”.
As to `COC(=O)C1=C(C)N=C(C)N(C(=O)OC)C1c1ccccc1[N+](=O)[O-]` (stereo not shown) [Compound 10], in the test with vertebral artery (setting [2]), the response vs control in vivo at 0.001 mg/kg was 102%, the response vs control in vivo at 0.003 mg/kg is 108%, the response vs control in vivo at 0.01 mg/kg was found to be 113% and the response vs control in vivo at 0.03 mg/kg was 140%. In addition, the response vs control in vivo at 0.1 mg/kg in the test with vertebral artery (setting [2]) came to 146%. For the same compound, in the test on vertebral artery (setting [3]), the response vs control in vivo at 0.001 mg/kg is 99%, the response vs control in vivo at 0.003 mg/kg worked out at 94%, the response vs control in vivo at 0.01 mg/kg came to 86% and the response vs control in vivo at 0.03 mg/kg is 67%. Also, the response vs control in vivo at 0.1 mg/kg with vertebral artery (setting [3]) was determined as 58%. In the test with systemic blood pressure, the response vs control in vivo at 0.001 mg/kg stood at 92%, the response vs control in vivo at 0.003 mg/kg was found to be 91%, the response vs control in vivo at 0.01 mg/kg worked out at 86% and the response vs control in vivo at 0.03 mg/kg is 78%. In addition, the response vs control in vivo at 0.1 mg/kg in the test with systemic blood pressure worked out at 63%. In test [1], the “Pharmacological data ED50” value came to 0.75 μg/heart.
